Assay results reported in PubChem BioAssay (NCI).
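Cultured in 96-well plates, cells were exposed to test compound for 48 hours across five concentrations. The concentration for full growth arrest is given as TGI.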

Assays:
Experiment in all cases: NCI tumour cell line growth inhibition, 48 h
SK-OV-3 ovarian = test system: SK-OV-3 ovarian
COLO 205 colon = test system: COLO 205 colon
NCI-H460 lung = test system: NCI-H460 lung
EKVX NSCLC = test system: EKVX NSCLC
UO-31 renal = test system: UO-31 renal
LOX IMVI melanoma = test system: LOX IMVI melanoma
SN12C renal = test system: SN12C renal
P388/ADR leukemia = test system: P388/ADR leukemia
KM12 colon = test system: KM12 colon
OVCAR-4 ovarian = test system: OVCAR-4 ovarian
SNB-78 CNS = test system: SNB-78 CNS
NCI-H23 lung = test system: NCI-H23 lung
RPMI-8226 leukemia = test system: RPMI-8226 leukemia
DMS 114 small cell lung = test system: DMS 114 small cell lung
KM20L2 colon = test system: KM20L2 colon
SF-268 CNS = test system: SF-268 CNS
SK-MEL-2 melanoma = test system: SK-MEL-2 melanoma
OVCAR-3 ovarian = test system: OVCAR-3 ovarian
RXF 393 renal = test system: RXF 393 renal
NCI-H226 lung = test system: NCI-H226 lung
MCF7 breast = test system: MCF7 breast
NCI-H522 lung = test system: NCI-H522 lung
UACC-62 melanoma = test system: UACC-62 melanoma
OVCAR-5 ovarian = test system: OVCAR-5 ovarian
HCT-116 colon = test system: HCT-116 colon
IGROV1 ovarian = test system: IGROV1 ovarian
DMS 273 small cell lung = test system: DMS 273 small cell lung
U251 CNS = test system: U251 CNS
SF-295 CNS = test system: SF-295 CNS
SK-MEL-28 melanoma = test system: SK-MEL-28 melanoma
A549 NSCLC = test system: A549 NSCLC
HT29 colon = test system: HT29 colon
A498 renal = test system: A498 renal
HOP-62 NSCLC = test system: HOP-62 NSCLC
OVCAR-8 ovarian = test system: OVCAR-8 ovarian
HL-60(TB) leukemia = test system: HL-60(TB) leukemia
HOP-18 NSCLC = test system: HOP-18 NSCLC
MALME-3M melanoma = test system: MALME-3M melanoma
MOLT-4 leukemia = test system: MOLT-4 leukemia
CCRF-CEM leukemia = test system: CCRF-CEM leukemia
HOP-92 NSCLC = test system: HOP-92 NSCLC
SNB-19 CNS = test system: SNB-19 CNS
SK-MEL-5 melanoma = test system: SK-MEL-5 melanoma
XF 498 CNS = test system: XF 498 CNS
CAKI-1 renal = test system: CAKI-1 renal
K-562 leukemia = test system: K-562 leukemia
NCI/ADR-RES ovarian = test system: NCI/ADR-RES ovarian
P388 leukemia = test system: P388 leukemia
SF-539 CNS = test system: SF-539 CNS
M19-MEL melanoma = test system: M19-MEL melanoma
SW-620 colon = test system: SW-620 colon
SNB-75 CNS = test system: SNB-75 CNS
DLD-1 colon = test system: DLD-1 colon
UACC-257 melanoma = test system: UACC-257 melanoma
HCC-2998 colon = test system: HCC-2998 colon
HCT-15 colon = test system: HCT-15 colon
SN12K1 renal = test system: SN12K1 renal

SMILES: CC(C)=CC(=O)OC1C2C(C)C(=O)OC2C(O)C(C)C2C=CC(=O)C21C (configuration not stated)
- TGI (SK-OV-3 ovarian): 15.3 µM
- TGI (COLO 205 colon): 5.83 µM
- TGI (NCI-H460 lung): 6.33 µM
- TGI (EKVX NSCLC): 7.88 µM
- TGI (UO-31 renal): 10.5 µM
- TGI (LOX IMVI melanoma): 3.44 µM
- TGI (SN12C renal): 8.19 µM
- TGI (P388/ADR leukemia): 4.01 µM
- TGI (KM12 colon): 9.31 µM
- TGI (OVCAR-4 ovarian): 6.42 µM
- TGI (SNB-78 CNS): 9.88 µM
- TGI (NCI-H23 lung): 7.59 µM
- TGI (RPMI-8226 leukemia): 11.7 µM
- TGI (DMS 114 small cell lung): 7.19 µM
- TGI (KM20L2 colon): 7.76 µM
- TGI (SF-268 CNS): 8.42 µM
- TGI (SK-MEL-2 melanoma): 11.5 µM
- TGI (OVCAR-3 ovarian): 6.92 µM
- TGI (RXF 393 renal): 3.68 µM
- TGI (NCI-H226 lung): 11.6 µM
- TGI (MCF7 breast): 11.1 µM
- TGI (NCI-H522 lung): 1.57 µM
- TGI (UACC-62 melanoma): 4.64 µM
- TGI (OVCAR-5 ovarian): 12.9 µM
- TGI (HCT-116 colon): 4.69 µM
- TGI (IGROV1 ovarian): 7.48 µM
- TGI (DMS 273 small cell lung): 8.85 µM
- TGI (U251 CNS): 8.3 µM
- TGI (SF-295 CNS): 13.4 µM
- TGI (SK-MEL-28 melanoma): 3.82 µM
- TGI (A549 NSCLC): 33.6 µM
- TGI (HT29 colon): 7.94 µM
- TGI (A498 renal): 3.29 µM
- TGI (HOP-62 NSCLC): 14.7 µM
- TGI (OVCAR-8 ovarian): 9.59 µM
- TGI (HL-60(TB) leukemia): 3.4 µM
- TGI (HOP-18 NSCLC): 11.2 µM
- TGI (MALME-3M melanoma): 8.28 µM
- TGI (MOLT-4 leukemia): 9.71 µM
- TGI (CCRF-CEM leukemia): 8.18 µM
- TGI (HOP-92 NSCLC): 8.85 µM
- TGI (SNB-19 CNS): 17.4 µM
- TGI (SK-MEL-5 melanoma): 9.14 µM
- TGI (XF 498 CNS): 9.77 µM
- TGI (CAKI-1 renal): 7.71 µM
- TGI (K-562 leukemia): 25.3 µM
- TGI (NCI/ADR-RES ovarian): 32.5 µM
- TGI (P388 leukemia): 1.29 µM
- TGI (SF-539 CNS): 9.5 µM
- TGI (M19-MEL melanoma): 8.42 µM
- TGI (SW-620 colon): 5.29 µM
- TGI (SNB-75 CNS): 6.67 µM
- TGI (DLD-1 colon): 3.9 µM
- TGI (UACC-257 melanoma): 8.4 µM
- TGI (HCC-2998 colon): 10.1 µM
- TGI (HCT-15 colon): 8.52 µM
- TGI (SN12K1 renal): 6.28 µM
